Data from patent US8445510B2, “Fused bicyclic kinase inhibitors” (OSI Pharmaceuticals, LLC, priority 2011, dated 2013).

What was measured:
Assay type in all cases: cell-based
Karpas-299 cells = experiment: Karpas-299 cell proliferation assay (CellTiter-Glo); conditions: Homo sapiens, 72 h; Karpas-299 cell line (NPM-ALK); 3 days incubation; at least duplicate experiments; read-out: Prolif. IC50
Experimental: The effect of inhibitors on the proliferation of Karpas-299 cells (DSMZ no. ACC 31) was determined using the following protocol. Karpas-299 cells were plated in 96-well white tissue culture treated plates (Corning 3917) in growth medium (RPMI, 10% FCS) at a density of 5000 cells/well in a total volume of 135 μL and incubated at 37° C., 5% CO2, 95% humidity overnight. The following day, one-tenth volume of a 10× concentration of compounds was added to the wells in an 8-point dilution series. Compounds were serially diluted (1:4) in DMSO from a 10 mM stock solution prior to dilution in growth media to the 10× working concentrations (5% DMSO). Final concentration of DMSO in compound-treated wells was 0.5%. Control wells containing growth media or growth media/0.5% DMSO were included in all test plates. […] Once the compounds were added to the cells, plates were incubated for 3 days at 37° C., 5% CO2 at 95% humidity. After 72 hours, all cells and reagents were equilibrated to room temperature and 15 μL of CellTiter-Glo reagent (Promega # G7573) was added to each well. Plates were shaken on a platform for 10 minutes at room temperature prior to reading luminescence. The value of the signal of the control wells was set as 100% growth and growth inhibition was expressed as percent of control. IC50 values were determined from the percent of control data using a standard four-parameter curve fit equation.
(§1) The IC50 values of exemplary compounds of the present invention determined in a cell proliferation assay using the Karpas-299 cell line according to the procedures described herein in at least duplicate experiments are abbreviated as follows and are shown in Table 5: A, IC50≦0.05 μM; B, 0.05 μM<IC50≦0.2 μM; C, 0.2 μM<IC50≦1 μM; D, IC50>1 μM; ND, not determined. The Example # of Table 5 corresponds to the compound example number as illustrated in the Examples section.
The Karpas-299 cell line has a t(2; 5) chromosomal translocation and expresses the NPM-ALK fusion protein, resulting in constitutively active ALK. […] Ther. 6(12):3314-22 (2007)]. With this “ALK-driven” cell line, the cell proliferation IC50 values can thus be used as surrogate for the p-ALK cell mechanistic IC50 values.

RON = target: T1, RON (Homo sapiens, UniProt Q04912); experiment: sfRON cell mechanistic assay (HeLa), phosphorylated RON ELISA; conditions: HeLa cells transfected with sfRON; inhibition of phosphorylated RON; four hours incubation; at least duplicate experiments; read-out: sfRON mech IC50
T1 sequence (Q04912 913-1400): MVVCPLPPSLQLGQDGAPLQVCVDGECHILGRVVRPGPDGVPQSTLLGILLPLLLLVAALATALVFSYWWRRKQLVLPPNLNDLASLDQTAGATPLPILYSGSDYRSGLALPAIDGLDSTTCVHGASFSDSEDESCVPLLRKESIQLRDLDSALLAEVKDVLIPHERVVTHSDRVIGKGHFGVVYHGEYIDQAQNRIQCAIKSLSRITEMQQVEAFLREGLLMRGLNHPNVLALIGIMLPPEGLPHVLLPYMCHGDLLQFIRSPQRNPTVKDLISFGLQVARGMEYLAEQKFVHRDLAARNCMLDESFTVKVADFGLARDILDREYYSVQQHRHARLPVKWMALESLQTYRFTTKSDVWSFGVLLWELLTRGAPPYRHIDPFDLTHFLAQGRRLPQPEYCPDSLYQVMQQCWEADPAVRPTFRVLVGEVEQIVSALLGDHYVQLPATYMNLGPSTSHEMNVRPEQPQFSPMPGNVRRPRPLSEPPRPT
Experimental: The cellular activity of the compounds of the present invention against RON may be determined by the following procedure. HeLa cells were plated in Falcon 3072 96-well plates in growth media (DMEM, 10% FBS, 1% L-glutamine) at a density of 10000 cells/well and incubated at 37° C., 5% CO2 overnight. The following day, cells were transfected with 0.2 μg sfRON-pcDNA plasmid DNA with 0.5 μL Lipofectamine-2000 per well in the presence of 50 μL OPTI-MEM, incubated at 37° C., 5% CO2 overnight. Costar 3915 96-well assay plates were coated with rabbit Anti-RON antibody at 2.0 μg/mL, sealed, and incubated overnight at 4° C. On the third day, coated plates were washed with PBS and blocked with 3% BSA. For the sfRON transfected cells, one-tenth volume of a 10× concentration of compounds was added to the wells in a 6-point dilution series. The dilution series was composed of an initial 1:5 dilution of a 10 mM DMSO stock solution of compound in DMSO, followed by a 1:10 dilution in growth media, for a final DMSO concentration on cells of 0.5%. Control wells were treated with 0.5% DMSO. The typical range of dilution was 10 μM to 3 nM. Once compound was added to the cells, plates were incubated for four hours at 37° C., 5% CO2. Plates were then washed in PBS, and lysed in triton-based lysis buffer. Lysates were transferred to the blocked capture plates. The phosphorylated RON levels were measured by incubating with a Goat polyclonal antibody against phosphorylated RON ([pYpY1238/1239]) followed by an anti-Goat antibody conjugated to HRP. Signal was measured on a Wallac Victor plate reader with luminance. The DMSO signal of the control wells was defined as 100% and the percent of inhibition of phosphorylated RON was expressed as percent of control. IC50 values were determined from the percent of control data using a standard four-parameter model.
The IC50 values of exemplary compounds of the present invention determined in a sfRON cell mechanistic assay using the HeLa cell line according to the procedures described herein in at least duplicate experiments are abbreviated as follows and are shown in Table 3: A, IC50≦0.2 μM; B, 0.2 μM<IC50≦1.0 μM; C, IC50>1 μM; ND, not determined. The Example # of Table 3 corresponds to the compound example number as illustrated in the Examples section.

MKN45 cells = experiment: MKN45 cell proliferation assay (CellTiter-Glo); conditions: Homo sapiens, MKN-45, 72 h; MKN45 cell line; 3 days incubation; at least duplicate experiments; read-out: Prolif. IC50
Experimental: The effect of inhibitors on the proliferation of MKN45 cells was determined using the following protocol. MKN45 cells were plated in Corning 3917 96-well white tissue culture treated plates in growth medium (RPMI, 10% FCS) at a density of 5000 cells/well in a total volume of 135 μL and incubated at 37° C., 5% CO2, 95% humidity overnight. The following day, one-tenth volume of a 10× concentration of compounds was added to the wells in an 8-point dilution series. The dilution series was composed of an initial 1:5 dilution of a 10 mM stock of compound in DMSO, followed by serial 1:4 dilutions in DMSO, then a 1:20 dilution in growth medium prior to the 1:10 dilution into the cell plate. […] The typical dilution range is 10 μM to 0.6 nM. Once the compound was added to the cells, plates were incubated for 3 days at 37° C., 5% CO2 at 95% humidity. On the third day, after allowing all cells and reagents to come to room temperature, 25 μL of CellTiter-Glo reagent (Promega #G7573) was added to the wells. Plates were shaken on a platform for 10 minutes prior to reading luminescence for 0.1 seconds. The signal of the control wells was taken as 100% growth and growth inhibition was expressed as percent of control. IC50 values were determined from the percent of control data using a standard four-parameter model.
as §1, with “the MKN45” for “the Karpas-299”, “Table 2:” for “Table 5:”, “Table 2” for “Table 5”
Treatment of this cell line with a selective c-MET inhibitor led to induction of apoptosis and inhibition of proliferation, whereas non-MET-amplified cell lines were not affected [Smolen et al., Proc. Natl. Acad. Sci. USA, 103(7):2316-2321 (2006)]. This cell line is thus “driven” by c-MET, and antiproliferative effects correlate very well with the inhibition of c-MET phosphorylation so that the cell proliferation IC50, values can be used as surrogate for the c-MET cell mechanistic IC50, values. Under the assay conditions described herein, the IC50 values correlate nearly 1:1.

| IC50 (Karpas-299 cells) [nM] | IC50 (RON) [nM] | IC50 (MKN45 cells) [nM] | Structure (SMILES) |
| --- | --- | --- | --- |
| 200 to 1000 | > 1000 | 200 to 1000 | Cc1c(-c2cnc3[nH]cc([C@H](C)c4c(OC(F)F)ccc(F)c4Cl)c3c2)cnn1[C@H]1CC[C@@H](N2CCC[C@H]2C(=O)O)CC1 [Example 92, 1-{cis-4-[4-(3-{(1S)-1-[2-Chloro-6-(difluoromethoxy)-3-fluorophenyl]ethyl}-1H-pyrrolo[2,3-b]pyridin-5-yl)-5-methyl-1H-pyrazol-1-yl]cyclohexyl}-L-proline] |
| ≤ 50 | > 1000 | 50 to 200 | Cc1c(-c2cnc3[nH]cc(C(C)c4c(Cl)ccc(F)c4O)c3c2)cnn1[C@H]1CC[C@H](O)CC1 (stereo partly drawn) [Example 115, 3-Chloro-6-fluoro-2-(1-{5-[1-(trans-4-hydroxycyclohexyl)-5-methyl-1H-pyrazol-4-yl]-1H-pyrrolo[2,3-b]pyridin-3-yl}ethyl)-phenol] |
| 200 to 1000 | > 1000 | 200 to 1000 | COc1ccc(F)c(Cl)c1[C@H](CF)c1c[nH]c2ncc(-c3cnn([C@H]4CC[C@H](O)CC4)c3C)cc12 [Example 120, trans-4-(4-{3-[(1R)-1-(2-Chloro-3-fluoro-6-methoxyphenyl)-2-fluoroethyl]-1H-pyrrolo[2,3-b]pyridin-5-yl}-5-methyl-1H-pyrazol-1-yl)cyclohexanol] |
| ≤ 50 | 200 to 1000 | ≤ 50 | Cc1c(-c2cnc3[nH]cc([C@H](C)c4c(OC(F)F)ccc(F)c4Cl)c3c2)cnn1C1CCC(=O)CC1 [Example 88, 4-[4-(3-{(1S)-1-[2-Chloro-6-(difluoromethoxy)-3-fluorophenyl]ethyl}-1H-pyrrolo[2,3-b]pyridin-5-yl)-5-methyl-1H-pyrazol-1-yl]cyclohexanone] |
| 50 to 200 | > 1000 | 50 to 200 | COc1ccc(F)c(Cl)c1[C@@H](C)c1c[nH]c2ncc(-c3cnn([C@H]4CC[C@@H](N5CCNCC5)CC4)c3C)cc12 [Example 56, 3-[(1S)-1-(2-Chloro-3-fluoro-6-methoxyphenyl)ethyl]-5-{5-methyl-1-[cis-4-(piperazin-1-yl)cyclohexyl]-1H-pyrazol-4-yl}-1H-pyrrolo[2,3-b]pyridine] |
| 200 to 1000 | 200 to 1000 | 50 to 200 | N#CC(c1c(Cl)ccc(F)c1Cl)c1c[nH]c2ncc(-c3cnn([C@H]4CC[C@H](O)CC4)c3F)cc12 (stereo partly drawn) [Example 109] |
| 50 to 200 | > 1000 | ≤ 50 | COc1ccc(F)c(Cl)c1[C@@H](C)c1c[nH]c2ncc(-c3cnn([C@H]4CC[C@@H](N5CCN(C(C)=O)CC5)CC4)c3C)cc12 [Example 57, 1-{4-[cis-4-(4-{3-[(1S)-1-(2-Chloro-3-fluoro-6-methoxyphenyl)ethyl]-1H-pyrrolo[2,3-b]pyridin-5-yl}-5-methyl-1H-pyrazol-1-yl)cyclohexyl]piperazin-1-yl}ethanone] |
